US12139520B2 (priority 2020, dated 2024)
Numbered stars: 1 amine (or outer) side, 2 acyl side, 3 side chain; on linkers, the order of the positions; unused ones are H or OH. Bridge positions count the residues as written; N and C are the ends. Square brackets hold non-standard residues; d marks the D form. Side chains are listed from the residue outwards. Peptide text beside a SMILES is read from it. * marks the point of attachment. C20 diacid = O=C(O)CCCCCCCCCCCCCCCCCCC(=O)*; γGlu = O=C(O)[C@H](CCC(=O)[*:2])N[*:1]; Hyp = O=C(O)[C@@H]1C[C@@H](O)CN1; AEEA = NCCOCCOCC(=O)O

Columns and labels:
hAMY3 receptor = target: T1, hAMY3 receptor (Homo sapiens, UniProt O60896+P30988); assay: cAMP assay for in vitro receptor activation, hAMY3-R; format: cell-based; conditions: cAMP assay, hAMY3 receptor; read-out: hAMY3R EC50
T1 sequence (P30988 25-474): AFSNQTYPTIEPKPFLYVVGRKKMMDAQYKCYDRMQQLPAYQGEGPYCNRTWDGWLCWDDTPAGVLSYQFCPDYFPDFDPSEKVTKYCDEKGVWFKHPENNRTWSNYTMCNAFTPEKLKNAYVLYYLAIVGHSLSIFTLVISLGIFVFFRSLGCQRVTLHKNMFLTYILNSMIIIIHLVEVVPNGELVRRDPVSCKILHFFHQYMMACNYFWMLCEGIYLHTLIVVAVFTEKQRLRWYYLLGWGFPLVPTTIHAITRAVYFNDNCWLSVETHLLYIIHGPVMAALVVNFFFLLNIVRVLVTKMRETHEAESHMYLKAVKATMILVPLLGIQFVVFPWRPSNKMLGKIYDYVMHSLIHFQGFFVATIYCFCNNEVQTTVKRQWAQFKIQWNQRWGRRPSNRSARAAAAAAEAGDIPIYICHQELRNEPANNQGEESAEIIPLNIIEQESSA
T1 sequence (O60896 24-148 partner): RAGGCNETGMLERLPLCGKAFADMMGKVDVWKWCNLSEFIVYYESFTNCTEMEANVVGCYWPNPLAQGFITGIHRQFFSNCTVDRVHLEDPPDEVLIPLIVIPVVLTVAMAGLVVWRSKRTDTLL
Method in brief: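 Graded compound concentrations were applied for 30 min at room temperature to stably hAMY3-expressing cells in DPBS, 0.05% casein, 0.5 mM IBMX; cAMP detected by TR-FRET.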

hAM1 receptor = hAM1 receptor (Homo sapiens, UniProt O60895+Q16602); assay: cAMP assay for in vitro receptor activation, hAM1-R; format: cell-based; conditions: cAMP assay, hAM1 receptor; read-out: hAM1R EC50
Method in brief: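 Monoclonal stable hAM1-overexpressing cells, thawed from frozen stock; 8000 cells/well in DPBS + 0.05% casein + 0.5 mM IBMX; read-out cAMP.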

hAM1 receptor, sequence (Q16602 23-461): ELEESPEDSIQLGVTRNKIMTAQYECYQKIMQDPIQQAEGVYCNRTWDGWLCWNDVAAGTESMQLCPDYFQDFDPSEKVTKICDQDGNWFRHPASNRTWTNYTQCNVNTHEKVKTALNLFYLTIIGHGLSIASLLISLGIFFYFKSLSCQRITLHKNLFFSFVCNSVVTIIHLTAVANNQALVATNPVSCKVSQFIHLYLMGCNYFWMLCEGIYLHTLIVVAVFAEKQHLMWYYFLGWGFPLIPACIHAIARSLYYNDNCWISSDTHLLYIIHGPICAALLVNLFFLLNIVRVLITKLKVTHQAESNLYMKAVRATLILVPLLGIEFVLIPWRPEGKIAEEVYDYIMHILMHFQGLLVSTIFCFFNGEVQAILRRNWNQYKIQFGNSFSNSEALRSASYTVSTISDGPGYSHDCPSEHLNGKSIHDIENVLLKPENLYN
hAM1 receptor, sequence (O60895 43-175 partner): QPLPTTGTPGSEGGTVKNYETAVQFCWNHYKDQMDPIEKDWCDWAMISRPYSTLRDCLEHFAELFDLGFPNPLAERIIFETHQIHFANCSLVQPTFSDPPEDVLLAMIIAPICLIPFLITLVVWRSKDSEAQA

Compound | EC50 (hAMY3 receptor) [nM] | EC50 (hAM1 receptor) [nM]
CC[C@H](C)[C@H](NC(=O)[C@H](CCC(N)=O)NC(=O)[C@H](Cc1c[nH]cn1)NC(=O)[C@H](C)NC(=O)[C@H](CC(C)C)NC(=O)[C@H](CCCNC(=N)N)NC(=O)[C@H](CCC(N)=O)NC(=O)[C@@H](NC(=O)[C@@H](NC(=O)[C@@H]1CSSC[C@H](NC(=O)CN)C(=O)N[C@@H](CCCNC(=N)N)C(=O)N[C@@H](Cc2ccccc2)C(=O)NCC(=O)N[C@@H]([C@@H](C)O)C(=O)N1)[C@@H](C)O)C(C)C)C(=O)N[C@@H](Cc1ccc(O)cc1)C(=O)N[C@@H](CCC(N)=O)C(=O)N[C@@H](Cc1ccccc1)C(=O)N[C@H](C(=O)N[C@@H](CC(=O)O)C(=O)N[C@@H](CCCCN)C(=O)N[C@@H](CC(=O)O)C(=O)N[C@@H](CCCCN)C(=O)N[C@@H](CC(=O)O)C(=O)N[C@@H](CC(N)=O)C(=O)N[C@H](C(=O)N[C@@H](C)C(=O)N1CCC[C@H]1C(=O)N[C@@H](CCCNC(=N)N)C(=O)N[C@H](C(=O)N[C@@H](CCCCN)C(=O)N[C@H](C(=O)N[C@@H](CO)C(=O)N1CCC[C@H]1C(=O)N[C@@H](CCC(N)=O)C(=O)NCC(=O)N[C@@H](Cc1ccc(O)cc1)C(N)=O)C(C)C)[C@@H](C)O)C(C)C)[C@@H](C)O [compound 155] (H-GCRFGTCTVQRLAHQIYQFTDKDKDNVAPRTKVSPQGY-NH2; disulfide 2-7; N-terminus assumed) | 0.045 | 116
CC[C@H](C)[C@H](NC(=O)[C@H](CCC(N)=O)NC(=O)[C@H](Cc1c[nH]cn1)NC(=O)[C@H](C)NC(=O)[C@H](CC(C)C)NC(=O)[C@H](CCCNC(=N)N)NC(=O)[C@H](CCC(N)=O)NC(=O)[C@@H](NC(=O)[C@@H](NC(=O)[C@@H]1CSSC[C@H](NC(=O)[C@@H](N)CCCCN)C(=O)N[C@@H](CC(N)=O)C(=O)N[C@@H]([C@@H](C)O)C(=O)N[C@@H](C)C(=O)N[C@@H]([C@@H](C)O)C(=O)N1)[C@@H](C)O)C(C)C)C(=O)N[C@@H](Cc1ccc(O)cc1)C(=O)N[C@@H](CCC(N)=O)C(=O)N[C@@H](Cc1ccccc1)C(=O)N[C@H](C(=O)N[C@@H](CC(=O)O)C(=O)N[C@@H](CCCCN)C(=O)N[C@@H](CC(=O)O)C(=O)N[C@@H](CCCCN)C(=O)N[C@@H](CC(=O)O)C(=O)N[C@@H](CC(N)=O)C(=O)N[C@H](C(=O)N[C@@H](C)C(=O)N[C@@H](C)C(=O)N1CCC[C@H]1C(=O)N[C@H](C(=O)N[C@@H](CC(N)=O)C(=O)N[C@H](C(=O)NCC(=O)N[C@@H](CO)C(=O)N[C@@H](CC(N)=O)C(=O)NCC(=O)N1C[C@H](O)C[C@H]1C(N)=O)C(C)C)[C@@H](C)O)C(C)C)[C@@H](C)O [compound 53] (H-KCNTATCTVQRLAHQIYQFTDKDKDNVAAPTNVGSNG[Hyp]-NH2; disulfide 2-7; N-terminus assumed) | 0.011 | > 5000
CC[C@H](C)[C@H](NC(=O)[C@H](CCCCN)NC(=O)[C@H](CO)NC(=O)[C@H](CCCNC(=N)N)NC(=O)[C@@H]1CCCN1C(=O)[C@H](C)NC(=O)[C@@H](NC(=O)[C@H](CC(N)=O)NC(=O)[C@H](CC(=O)O)NC(=O)[C@H](CCCCN)NC(=O)[C@H](CC(=O)O)NC(=O)[C@H](CCCCN)NC(=O)[C@H](CC(=O)O)NC(=O)[C@@H](NC(=O)[C@H](Cc1ccccc1)NC(=O)[C@H](CCC(N)=O)NC(=O)[C@H](Cc1ccc(O)cc1)NC(=O)[C@@H](NC(=O)[C@H](CCC(N)=O)NC(=O)[C@H](Cc1c[nH]cn1)NC(=O)[C@H](C)NC(=O)[C@H](CC(C)C)NC(=O)[C@H](CCCNC(=N)N)NC(=O)[C@H](CCC(N)=O)NC(=O)[C@@H](NC(=O)[C@@H](NC(=O)[C@@H]1CSSC[C@H](NC(=O)CN)C(=O)N[C@@H](CCCNC(=N)N)C(=O)N[C@@H](Cc2ccccc2)C(=O)NCC(=O)N[C@@H]([C@@H](C)O)C(=O)N1)[C@@H](C)O)C(C)C)[C@@H](C)CC)[C@@H](C)O)C(C)C)C(=O)NCC(=O)N1CCC[C@H]1C(=O)N[C@@H](CCC(N)=O)C(=O)NCC(=O)N1C[C@H](O)C[C@H]1C(N)=O [compound 127] (H-GCRFGTCTVQRLAHQIYQFTDKDKDNVAPRSKIGPQG[Hyp]-NH2; disulfide 2-7; N-terminus assumed) | 0.028 | 107
CC[C@H](C)[C@H](NC(=O)[C@H](C)NC(=O)CNC(=O)[C@H](Cc1ccccc1)NC(=O)[C@H](CC(N)=O)NC(=O)[C@H](CC(N)=O)NC(=O)[C@H](CO)NC(=O)[C@H](CO)NC(=O)[C@H](Cc1c[nH]cn1)NC(=O)[C@@H](NC(=O)[C@H](CC(C)C)NC(=O)[C@H](Cc1ccccc1)NC(=O)[C@H](CC(N)=O)NC(=O)[C@H](C)NC(=O)[C@H](CC(C)C)NC(=O)[C@H](CCCNC(=N)N)NC(=O)[C@H](CCC(N)=O)NC(=O)[C@@H](NC(=O)[C@H](C)NC(=O)[C@@H]1CSSC[C@H](NC(=O)[C@@H](N)CCCCN)C(=O)N[C@@H](CC(N)=O)C(=O)N[C@@H]([C@@H](C)O)C(=O)N[C@@H](C)C(=O)N[C@@H]([C@@H](C)O)C(=O)N1)[C@@H](C)O)C(C)C)C(=O)N[C@@H](CC(C)C)C(=O)N1CCC[C@H]1C(=O)N[C@@H](CO)C(=O)N[C@H](C(=O)N[C@@H](CCCCN)C(=O)N[C@H](C(=O)NCC(=O)N[C@@H](CO)C(=O)N[C@@H](CC(N)=O)C(=O)N[C@H](C(=O)N[C@@H](Cc1ccc(O)cc1)C(N)=O)[C@@H](C)O)[C@@H](C)CC)[C@@H](C)O [compound 180] (H-KCNTATCATQRLANFLVHSSNNFGAILPSTKIGSNTY-NH2; disulfide 2-7; N-terminus assumed) | 0.082 | > 5000

These reach a lower EC50 (hAMY3 receptor). Values come first.

EC50 (hAMY3 receptor) [nM] | EC50 (hAM1 receptor) [nM] | Compound
0.01 | > 5000 | CC[C@H](C)[C@H](NC(=O)[C@H](CCC(N)=O)NC(=O)[C@H](CCC(=O)O)NC(=O)[C@H](C)NC(=O)[C@H](CC(C)C)NC(=O)[C@H](CCCNC(=N)N)NC(=O)[C@H](CCC(N)=O)NC(=O)[C@@H](NC(=O)[C@@H](NC(=O)[C@@H]1CSSC[C@H](NC(=O)[C@@H](N)CCCCN)C(=O)N[C@@H](CC(N)=O)C(=O)N[C@@H]([C@@H](C)O)C(=O)N[C@@H](C)C(=O)N[C@@H]([C@@H](C)O)C(=O)N1)[C@@H](C)O)C(C)C)C(=O)N[C@@H](Cc1ccc(O)cc1)C(=O)N[C@@H](CCC(N)=O)C(=O)N[C@@H](Cc1ccccc1)C(=O)N[C@H](C(=O)N[C@@H](CC(=O)O)C(=O)N[C@@H](CCCCN)C(=O)N[C@@H](CC(=O)O)C(=O)N[C@@H](CCCCN)C(=O)N[C@@H](CC(=O)O)C(=O)N[C@@H](CCCCNC(=O)COCCOCCNC(=O)COCCOCCNC(=O)CC[C@H](NC(=O)CCCCCCCCCCCCCCCCCCC(=O)O)C(=O)O)C(=O)N[C@H](C(=O)N[C@@H](C)C(=O)N1CCC[C@H]1C(=O)N1CCC[C@H]1C(=O)N[C@H](C(=O)N[C@@H](CC(N)=O)C(=O)N[C@H](C(=O)NCC(=O)N[C@@H](CO)C(=O)N[C@@H](CC(N)=O)C(=O)NCC(=O)N1C[C@H](O)C[C@H]1C(N)=O)C(C)C)[C@@H](C)O)C(C)C)[C@@H](C)O [compound 41] (H-KCNTATCTVQRLAEQIYQFTDKDKDK([AEEA-AEEA-γGlu-C20 diacid])VAPPTNVGSNG[Hyp]-NH2; disulfide 2-7; N-terminus assumed)
0.01 | > 5000 | CC[C@H](C)[C@H](NC(=O)[C@H](CCC(N)=O)NC(=O)[C@H](Cc1c[nH]cn1)NC(=O)[C@H](C)NC(=O)[C@H](CC(C)C)NC(=O)[C@H](CCCNC(=N)N)NC(=O)[C@H](CC(N)=O)NC(=O)[C@@H](NC(=O)[C@@H](NC(=O)[C@@H]1CSSC[C@H](NC(=O)[C@H](CCCCN)NC(=O)CC[C@H](NC(=O)CCCCCCCCCCCCCCCCCCC(=O)O)C(=O)O)C(=O)N[C@@H](CC(N)=O)C(=O)N[C@@H]([C@@H](C)O)C(=O)N[C@@H](C)C(=O)N[C@@H]([C@@H](C)O)C(=O)N1)[C@@H](C)O)C(C)C)C(=O)N[C@@H](Cc1ccc(O)cc1)C(=O)N[C@@H](CCC(N)=O)C(=O)N[C@@H](Cc1ccccc1)C(=O)N[C@H](C(=O)N[C@@H](CC(=O)O)C(=O)N[C@@H](CCCCN)C(=O)N[C@@H](CC(=O)O)C(=O)N[C@@H](CCCCN)C(=O)N[C@@H](CC(=O)O)C(=O)N[C@@H](CC(N)=O)C(=O)N[C@H](C(=O)N[C@@H](C)C(=O)N1CCC[C@H]1C(=O)N1CCC[C@H]1C(=O)N[C@H](C(=O)N[C@@H](CC(N)=O)C(=O)N[C@H](C(=O)NCC(=O)N[C@@H](CO)C(=O)N[C@@H](CC(N)=O)C(=O)NCC(=O)N1C[C@H](O)C[C@H]1C(N)=O)C(C)C)[C@@H](C)O)C(C)C)[C@@H](C)O [compound 38] ({C20 diacid-γGlu}-KCNTATCTVNRLAHQIYQFTDKDKDNVAPPTNVGSNG[Hyp]-NH2; disulfide 2-7)
